{"source": "patent US9925222B2", "about": "“Gut barrier dysfunction treatment and prevention” (ALBERT EINSTEIN COLLEGE OF MEDICINE OF YESHIVA UNIVERSITY, priority 2012, dated 2018)", "key": {"[1]": {"test_system": "Tnf-α, Zo-1 and E-cad mRNA expression in gut epithelium", "test": "Ex vivo treatment of gut mucosa with OLA, rescue with indole and IPA, qPCR", "type": "cell-based", "details": "OLA 5 mg/ml, 3 h ex vivo; all mice genotypes", "protocol": "Freshly isolated gut mucosa were incubated in the presence of OLA (5 mg/ml) for 3 h at 37° C., 5% CO2 (13). After 3 h of OLA treatment, enterocytes were isolated and pooled for RNA isolation. […] Experiments were performed at least two independent times. OLA has […] (log P), thus is unsuitable for in vivo studies of luminal bacterial enzyme inhibition (Pubchem, ST093573). 2.0 μg of total RNA extracted from pooled apical enterocytes with TRIzolR (Invitrogen), were reverse transcribed with random hexamer primers and SuperScriptTM III-RT enzyme (Invitrogen). Quantitative PCR (qPCR) reactions using TaqMan universal PCR master mix and TaqMan probes containing FAM as the 5' reporter fluorochrome and tetramethylrhodamine (MGB) as the 3' quencher fluorochrome, were performed in triplicate for each sample and analyzed on the ABI Prism 7900HT system. Primers and minor groove binder/non-fluorescent quencher probes used for PCR amplification were obtained from Applied Biosystems as well as the following assays on demand: […] Controls include RT-minus RNA samples. PCR reaction conditions for all assays were set at 50° C. for 2 minutes, 95° C. for 10 minutes, followed by 40 cycles of amplification (95° C. for 15 seconds then 60° C. for 1 minute)."}, "[2]": {"details": "Pubchem, ST093573; cited from earlier work"}}}
{"compound": "NC(CC1C(=O)Nc2ccccc21)C(=O)O", "note": "[OLA, Oxindolyl L-alanine]", "values": [{"measurement": "Enterocyte Tnf-α mRNA expression after OLA", "setting": "[1]", "value": "enhanced enterocyte Tnf-α mRNA expression"}, {"measurement": "Expression of junctional regulators (Zo-1 and E-cad) after OLA", "setting": "[1]", "value": "diminished expression of junctional regulators"}, {"measurement": "Predicted oral bioavailability (log P)", "setting": "[2]", "value": "high"}]}
